Results on 16 compounds are retold here after ChEMBL document CHEMBL5625161, “Pharmacological activity and mechanism of pyrazines” (Eur J Med Chem, 2023).

One data set has as its system OVCAR-5. Nature of the data set: Cytotoxicity against human OVCAR-5 cells assessed as reduction in cell growth incubated for 72 hrs by CCK-8 assay. The conditions noted are these: OVCAR-5, 72 h. Format: functional, cell-based. For orientation: Tetrazolium assays rely on reduction of a dye to a coloured formazan, in cell work by metabolically active cells.
For data set [1], the system named is A549. Nature of the data set: Cytotoxicity against human A549 cells assessed as reduction in cell growth incubated for 72 hrs by CCK-8 assay. To be noted: A549, 72 h. The format is functional, cell-based.
The test system of the next data set is HEY. Nature of the data set: Cytotoxicity against human HEY cells assessed as reduction in cell growth incubated for 72 hrs by CCK-8 assay. The format is functional, cell-based.
The next data set deals with SK-OV-3. Nature of the data set: Cytotoxicity against human SK-OV-3 cells assessed as reduction in cell growth incubated for 72 hrs by CCK-8 assay. The conditions noted are these: SK-OV-3, 72 h. Format: functional, cell-based.
Another data set concerns SW626. In words: Cytotoxicity against human SW626 cells assessed as reduction in cell growth incubated for 72 hrs by CCK-8 assay. The format is functional, cell-based. To be noted: SW626, 72 h.
In the next data set the test system is ES-2. Nature of the data set: Cytotoxicity against human ES2 cells assessed as reduction in cell growth incubated for 72 hrs by CCK-8 assay. The format is functional, cell-based. The conditions noted are these: ES-2, 72 h.
For another data set, the system named is NCI-H460. In words: Cytotoxicity against human NCI-H460 cells assessed as reduction in cell growth incubated for 72 hrs by CCK-8 assay. Format: functional, cell-based. The conditions noted are these: NCI-H460, 72 h.
Another data set has as its system NCI-H1299. Nature of the data set: Cytotoxicity against human NCI-H1299 cells assessed as reduction in cell growth incubated for 72 hrs by CCK-8 assay. To be noted: NCI-H1299, 72 h. Format: functional, cell-based.
Another data set relates to Caco-2. Nature of the data set: Cytotoxicity against human Caco-2 cells assessed as reduction in cell growth incubated for 72 hrs by CCK-8 assay. The format is functional, cell-based. To be noted: Caco-2, 72 h.
Data set [2] concerns A549. Nature of the data set: Antiproliferative activity against human A549 cells assessed as reduction in cell viability incubated for 48 hrs by SRB assay. The format is functional, cell-based. The conditions noted are these: A549, 48 h. (In SRB staining, fixed cells bind dye roughly in proportion to their protein.)
In the next data set the test system is H322. Nature of the data set: Antiproliferative activity against human H322 cells assessed as reduction in cell viability incubated for 48 hrs by SRB assay. Format: functional, cell-based. The conditions noted are these: NCI-H322, 48 h.
The target in a further data set is Coagulation factor X (Homo sapiens, UniProt P00742). In words: Inhibition of human factor Xa.
Coagulation factor X, sequence (P00742 41-179 limits assumed): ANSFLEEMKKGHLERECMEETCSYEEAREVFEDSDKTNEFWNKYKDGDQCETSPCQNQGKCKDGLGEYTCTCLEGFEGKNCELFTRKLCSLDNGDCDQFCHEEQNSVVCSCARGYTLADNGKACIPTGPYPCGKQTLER
Coagulation factor X, sequence (P00742 235-488 limits assumed): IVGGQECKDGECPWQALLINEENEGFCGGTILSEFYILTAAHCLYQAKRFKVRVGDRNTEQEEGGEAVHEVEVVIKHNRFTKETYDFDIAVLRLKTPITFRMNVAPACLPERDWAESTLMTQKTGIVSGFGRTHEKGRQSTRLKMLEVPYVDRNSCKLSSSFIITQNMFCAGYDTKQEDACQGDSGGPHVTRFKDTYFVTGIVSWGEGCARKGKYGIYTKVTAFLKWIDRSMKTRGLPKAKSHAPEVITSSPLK
For another data set, the system named is HT-29. Nature of the data set: Antiproliferative activity against human HT-29 cells assessed as reduction in cell viability incubated for 24 hrs by MTT assay. Format: functional, cell-based. The conditions noted are these: HT-29, 24 h.
Another data set has as its system HeLa. In words: Antiproliferative activity against human HeLa cells assessed as reduction in cell viability incubated for 24 hrs by MTT assay. Format: functional, cell-based.
Another data set deals with PC-3. In words: Antiproliferative activity against human PC-3 cells assessed as reduction in cell viability incubated for 24 hrs by MTT assay. The format is functional, cell-based. To be noted: PC-3, 24 h.
The subject of a further data set is Rhizoctonia solani. In words: Antifungal activity Rhizoctonia solani assessed as fungal growth inhibition measured after 4 to 8 days. The format is functional, organism-based.
A further data set relates to HCT-116. Nature of the data set: Antiproliferative activity against human HCT-116 cells assessed reduction in cell growth incubated for 24 hrs by MTT assay. Format: functional, cell-based. To be noted: HCT-116, 24 h.
For another data set, the system named is MCF7. In words: Antiproliferative activity against human MCF7 cells assessed as inhibition of cell growth at 10 uM incubated for 48 hrs by SRB assay relative to control. The format is functional. Details: scale not given: the % may be the effect or the level left.
The target of another data set is Histone deacetylase 1 (Homo sapiens, UniProt Q13547). In words: Inhibition of human recombinant HDAC1.
Histone deacetylase 1, sequence (Q13547 whole entry): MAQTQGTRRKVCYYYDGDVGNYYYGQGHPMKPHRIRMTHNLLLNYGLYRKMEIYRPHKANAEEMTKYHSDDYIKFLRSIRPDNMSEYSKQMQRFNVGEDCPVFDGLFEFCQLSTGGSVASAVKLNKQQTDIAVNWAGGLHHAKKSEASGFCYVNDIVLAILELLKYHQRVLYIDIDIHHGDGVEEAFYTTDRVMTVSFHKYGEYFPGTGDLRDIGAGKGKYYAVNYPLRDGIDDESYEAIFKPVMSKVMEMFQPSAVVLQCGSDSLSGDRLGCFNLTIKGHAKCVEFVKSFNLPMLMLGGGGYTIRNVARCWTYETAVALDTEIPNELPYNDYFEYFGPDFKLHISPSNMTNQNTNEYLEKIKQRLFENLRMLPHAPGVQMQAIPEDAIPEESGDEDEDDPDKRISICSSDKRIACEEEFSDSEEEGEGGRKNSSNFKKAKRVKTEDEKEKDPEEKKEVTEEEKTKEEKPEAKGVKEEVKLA
For the next data set, the target named is Histone deacetylase 2 (Homo sapiens, UniProt Q92769). Nature of the data set: Inhibition of human recombinant HDAC2.
Histone deacetylase 2, sequence (Q92769 whole entry): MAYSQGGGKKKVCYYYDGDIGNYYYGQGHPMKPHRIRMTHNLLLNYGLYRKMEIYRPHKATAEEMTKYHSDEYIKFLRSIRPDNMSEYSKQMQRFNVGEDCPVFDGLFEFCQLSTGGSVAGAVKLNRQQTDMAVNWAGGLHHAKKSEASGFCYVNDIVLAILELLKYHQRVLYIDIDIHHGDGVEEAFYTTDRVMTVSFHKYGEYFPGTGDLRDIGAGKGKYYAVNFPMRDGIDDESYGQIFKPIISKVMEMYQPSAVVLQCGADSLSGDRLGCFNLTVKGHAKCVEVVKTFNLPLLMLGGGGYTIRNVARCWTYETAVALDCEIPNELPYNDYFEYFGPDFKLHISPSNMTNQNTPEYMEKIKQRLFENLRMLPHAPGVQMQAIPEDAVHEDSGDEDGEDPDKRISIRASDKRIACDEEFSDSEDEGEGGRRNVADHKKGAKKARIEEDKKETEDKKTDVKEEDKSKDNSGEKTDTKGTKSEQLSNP
The target of a further data set is Histone deacetylase 3 (Homo sapiens, UniProt O15379). Nature of the data set: Inhibition of human recombinant HDAC3.
Histone deacetylase 3, sequence (O15379 whole entry): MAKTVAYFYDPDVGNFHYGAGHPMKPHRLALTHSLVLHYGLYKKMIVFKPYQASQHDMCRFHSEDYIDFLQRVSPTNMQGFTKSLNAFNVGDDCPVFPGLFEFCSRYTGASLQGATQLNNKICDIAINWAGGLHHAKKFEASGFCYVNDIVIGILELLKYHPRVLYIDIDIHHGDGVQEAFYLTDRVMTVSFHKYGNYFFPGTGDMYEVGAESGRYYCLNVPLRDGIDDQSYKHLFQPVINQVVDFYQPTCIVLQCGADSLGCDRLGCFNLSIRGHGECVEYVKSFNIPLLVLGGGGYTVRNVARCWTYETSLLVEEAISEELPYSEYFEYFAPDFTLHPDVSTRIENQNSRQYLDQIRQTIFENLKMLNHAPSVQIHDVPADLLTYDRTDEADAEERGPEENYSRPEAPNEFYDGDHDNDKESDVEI
The next data set relates to FaDu. In words: Antiproliferative activity against human FaDu cells assessed as inhibition of cell growth incubated for 72 hrs by 3H-thymidine incorporation assay. Format: functional, cell-based.
For a further data set, the system named is A2780. In words: Antiproliferative activity against human A2780 cells assessed as reduction in cell growth incubated for 72 hrs by MTT assay. Format: functional, cell-based. The conditions noted are these: A2780, 72 h.
Another data set has as its system A-375. Nature of the data set: Cytotoxicity against human A-375 cells assessed as reduction in cell growth measured after 24 hrs by MTT assay. The format is functional, cell-based. The conditions noted are these: A-375, 24 h.
Data set [3] can be described thus: Cytotoxicity against African green monkey Vero cells incubated for 48 hrs by SRB colorimetric assay. Format: toxicity, cell-based, Chlorocebus sabaeus.
Data set [4] in a line: Antiproliferative activity against mouse […] cells assessed as inhibition of cell growth incubated for 48 hrs by MTT assay. Format: functional, cell-based. The conditions noted are these: time 48 hrs, read-out: ED50 (the source's name).
A further data set concerns SAOS-2. In words: Cytotoxicity against human SAOS-2 cells assessed as reduction in cell viability incubated for 48 hrs by MTT assay. The conditions noted are these: SAOS-2, 48 h. The format is functional, cell-based.
The next data set deals with U2OS. Nature of the data set: Cytotoxicity against human U2OS cells assessed as reduction in cell viability incubated for 48 hrs by MTT assay. Format: functional, cell-based.
The subject of the next data set is MG-63. In words: Cytotoxicity against human MG-63 cells assessed as reduction in cell viability incubated for 48 hrs by MTT assay. The format is functional, cell-based. To be noted: MG-63, 48 h.
Data set [5] has as its target T1, Fibroblast growth factor receptor 1 (Homo sapiens, UniProt P11362). In words: Inhibition of human recombinant FGFR1 at 10 uM by Enzyme-linked immunosorbent assay relative to control.
For data set [6], the target named is T1, Fibroblast growth factor receptor 1. In words: Inhibition of human recombinant FGFR1 at 1 uM by Enzyme-linked immunosorbent assay relative to control.

Molecules are shown by their SMILES. ≈ marks a conversion by molar mass, not a printed value.

T1 sequence (P11362 22-822 limits assumed): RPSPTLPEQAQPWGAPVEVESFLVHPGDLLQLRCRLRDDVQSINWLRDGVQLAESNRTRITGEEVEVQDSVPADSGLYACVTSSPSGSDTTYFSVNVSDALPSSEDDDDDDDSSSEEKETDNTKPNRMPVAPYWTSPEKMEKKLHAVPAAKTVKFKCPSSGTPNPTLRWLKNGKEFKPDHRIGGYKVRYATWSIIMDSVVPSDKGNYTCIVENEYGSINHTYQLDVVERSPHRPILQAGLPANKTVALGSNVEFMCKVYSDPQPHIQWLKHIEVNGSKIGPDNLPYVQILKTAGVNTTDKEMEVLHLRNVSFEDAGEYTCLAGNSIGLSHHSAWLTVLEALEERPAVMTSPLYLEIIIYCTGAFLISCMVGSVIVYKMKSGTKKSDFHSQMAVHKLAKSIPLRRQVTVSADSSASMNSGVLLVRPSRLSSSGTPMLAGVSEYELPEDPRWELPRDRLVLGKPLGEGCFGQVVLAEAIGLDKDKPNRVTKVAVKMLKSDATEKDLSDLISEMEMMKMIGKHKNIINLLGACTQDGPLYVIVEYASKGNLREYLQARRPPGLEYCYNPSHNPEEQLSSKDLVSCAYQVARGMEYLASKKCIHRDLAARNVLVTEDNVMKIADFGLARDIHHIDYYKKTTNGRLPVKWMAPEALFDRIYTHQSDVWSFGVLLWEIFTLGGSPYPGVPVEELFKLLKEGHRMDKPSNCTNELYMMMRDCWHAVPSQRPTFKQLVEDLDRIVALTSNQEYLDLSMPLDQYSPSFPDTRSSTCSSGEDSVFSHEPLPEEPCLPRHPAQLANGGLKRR

Regarding `c1cn2cc(-c3ccc4cn[nH]c4c3)nc(Nc3ccc(N4CCOCC4)cc3)c2n1` [ENTOSPLETINIB], the IC50 in the data set with OVCAR-5 is 8.3 µM; in the data set on A549 [1] it was greater than 10 µM; with HEY, greater than 10 µM; in the data set with SK-OV-3 it was greater than 10 µM; in the data set with SW626, greater than 10 µM; with ES-2, greater than 10 µM. The IC50 was greater than 10 µM in the data set on NCI-H460, 6.26 µM in the data set on NCI-H1299 and 6.86 µM in the data set on Caco-2.

For the compound `CCn1c(-c2ccc(OC)cc2)cn2nc(-c3ccc(OC)cc3)cc2c1=O`, the IC50 with A549 [2] came to 49.7 µM; in the data set with H322, 50.6 µM.

On Coagulation factor X, `O=C1CN(S(=O)(=O)c2ccc3cc(Cl)ccc3c2)CC2(CO)NC3(CCN(c4ccncc4)CC3)CN12` (stereo not given) registered an IC50 of 0.00061 µM.

Consider `O=C1c2cccc3c2c(cc2nccnc23)C(=O)N1CCNCCCNCCN1C(=O)c2cccc3c2c(cc2nccnc23)C1=O`, for which the IC50 in the data set with HT-29 came to 0.02 µM; with HeLa, 0.2 µM; with PC-3 it was 0.53 µM.

Regarding `Cc1cnc(COC(=O)c2ccccc2)cn1`, the EC50 in the data set on Rhizoctonia solani worked out at 0.021 µg/mL (≈ 0.092 µM).

With `C[C@@H]1[C@]2(O[C@H]3C=C4[C@@H]5CC[C@H]6Cc7nc8c(nc7C[C@]6(C)[C@H]5C[C@@H](O)[C@]4(C)[C@]31O)C[C@@H]1CC[C@H]3C4=CC5O[C@@]6(CCC(C)(C)O6)[C@@H](C)[C@@H]5[C@@]4(C)[C@H](O)C[C@@H]3[C@@]1(C)C8)O[C@@](C)(COC(=O)CNC(=O)Cc1cc(=O)oc3cc(N(C)C)ccc13)C[C@H]2O` (stereo not given in full), 0.079 µM corresponded to half-maximal inhibition in the data set with HCT-116 (IC50).

For `O=C(OCc1cnccn1)c1ccccc1`, the EC50 in the data set on Rhizoctonia solani came to 0.02 µg/mL (≈ 0.0934 µM).

Consider `O=C1c2cc3ccccc3n2C(=O)C2Cc3ccncc3N12` (stereo not given), for which the Activity in the data set with MCF7 was determined as 50.6%.

`Cn1cc(CCN2CCN(c3cnc(C(=O)Nc4cc(-c5cccs5)ccc4[N+](=O)[O-])cn3)CC2)c2ccccc21`: the values for the IC50 at Histone deacetylase 1, at Histone deacetylase 2 and at Histone deacetylase 3 were 0.26 µM, 2.47 µM and 1 µM, respectively.

For `CC1c2nccnc2C[C@]2(C)[C@H]3C(=O)C=C4[C@@H]5[C@@H](C)[C@H](C)CC[C@]5(C)CC[C@@]4(C)[C@]3(C)CC[C@@H]12` (stereo not given in full), the IC50 in the data set on FaDu was greater than 30 µM; in the data set with HT-29, 22.7 µM; in the data set with A2780, 15.7 µM; in the data set with A-375 it was 12 µM.

As for `C[C@@H]1[C@]2(O[C@H]3C=C4[C@@H]5CC[C@H]6Cc7nc8c(nc7C[C@]6(C)[C@H]5C[C@@H](O)[C@]4(C)[C@]31O)C[C@@H]1CC[C@H]3C4=CC5O[C@@]6(CCC(C)(C)O6)[C@@H](C)[C@@H]5[C@@]4(C)[C@H](O)C[C@@H]3[C@@]1(C)C8)O[C@](C)(COC(=O)CNC(=O)Cc1cc(=O)oc3cc(N(C)C)ccc13)C[C@H]2O` (stereo not given in full), inhibition in the data set with HCT-116 was half-maximal at 0.084 µM (IC50).

As to `COC(=O)c1sc2nccnc2c1Nc1ccccc1OC`, the IC50 at 48 h in data set [3] was determined as 21.3 µM.

`C[C@@H]1[C@@]2(CC[C@](C)(O)CO2)O[C@H]2C=C3[C@@H]4[C@@H](O)C[C@H]5Cc6nc7c(nc6C[C@]5(C)[C@H]4C[C@@H](O)[C@]3(C)[C@]21O)C[C@@H]1CC[C@@H]2[C@H](CC(=O)[C@]23C[C@@H]2O[C@]4(CCC(C)(C)O4)[C@@H](C)[C@@H]2[C@]3(C)O)[C@@]1(C)C7` [RITTERAZINE D]: the EC50 in data set [4] was found to be 0.00017 µM.

Regarding `Cc1nc(C)c(C)nc1C` [LIGUSTRAZINE], the IC50 in the data set on SAOS-2 stood at 24.7 µg/mL (≈ 181 µM); in the data set with U2OS it was 54.7 µg/mL (≈ 402 µM); with MG-63, 10.3 µg/mL (≈ 75.6 µM).

As for `COc1nccc2c1N1C(=O)c3cc4ccccc4n3C(=O)C1C2` (stereo not given), the Activity in the data set with MCF7 is reported as 50.9%.

For the compound `Cn1cc(-c2cnc3ccn(S(=O)(=O)c4ccccc4)c3n2)cn1`, the figures for the inhibition in data set [5] and in data set [6] were 93.3% and 92.5%, respectively.

Broadly, the IC50 is the concentration at which inhibition is half-maximal. The term inhibition denotes the change of the read-out against control, counted positive when it falls.
